Results on seven compounds are retold here after patent US8921307B2, “Synthetic linear apelin mimetics for the treatment of heart failure” (priority 2012, dated 2014).

Structures are written as SMILES. Where a SMILES comes first, the peptide text is derived from it. [ ]: non-standard residue; d: D form. The star is where a group is joined. pGlu = O=C1CC[C@@H](C(=O)O)N1; dNle = CCCC[C@@H](N)C(=O)O; tBu = CC(C)(C)*

One series deals with T1, hAPJ (Homo sapiens, UniProt P35414).
T1 sequence (P35414 1-380): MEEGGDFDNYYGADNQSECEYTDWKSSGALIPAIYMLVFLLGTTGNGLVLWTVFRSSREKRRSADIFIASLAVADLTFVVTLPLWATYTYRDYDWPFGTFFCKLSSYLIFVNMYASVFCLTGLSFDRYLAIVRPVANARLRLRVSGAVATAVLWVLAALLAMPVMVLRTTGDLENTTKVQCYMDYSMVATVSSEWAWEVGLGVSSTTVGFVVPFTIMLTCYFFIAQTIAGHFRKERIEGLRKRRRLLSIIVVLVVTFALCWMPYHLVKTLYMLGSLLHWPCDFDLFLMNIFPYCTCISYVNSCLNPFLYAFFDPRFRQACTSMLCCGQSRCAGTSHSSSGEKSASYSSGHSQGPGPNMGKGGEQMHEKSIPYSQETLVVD
Briefly: hAPJ Calcium Flux Assay. Type of series: cell-based. Particulars: Chem-5 APJ stable cells, FLIPR calcium flux stimulation; read-out: hAPJ Ca^2+ Flux EC50. The procedure:
Chem-5 APJ stable cells (Millipore # HTS068C) were plated in 384-well format with 10,000 cells/well in 25 ul growth media, then grown 24 hours in a 37° C. tissue culture incubator. One hour before the assay, 25 ul/well FLIPR Calcium 4 dye (Molecular Devices R8142) with 2.5 mM probenecid was added, and cells were incubated one hour in a 37° C. tissue culture incubator. Peptides were solubilized in HBSS, HEPES & 0.1% BSA buffer, and serially-diluted 10-fold, from 50 uM to […], in triplicate. FLIPR Tetra was used to add peptide to the cells with dye (1:5, for final peptide concentrations ranging from 10 uM to […]). FLIPR dye inside the cells emitted fluorescence after binding to calcium, while fluorescence from outside the cells was masked. Fluorescence was measured using 470-495 excitation and 515-575 emission wavelengths on the FLIPR Tetra. Readings were done for 3 minutes total, beginning 10 seconds before the peptide addition. Maximum-minimum values were calculated and plotted for each peptide concentration, and GraphPad prism software was used to calculate EC50 values at the curve inflection points, for calcium flux stimulation by peptides.

Series [1] in a line: Surrogate Activity-Based Plasma Stability Assay. Type of series: in vitro ADME. Particulars: rat, Surrogate activity-based Plasma stability t½. The procedure:
Stability half-life was then calculated by the formula, t½=0.693÷k Surrogate Activity-Based Plasma Stability Assay: […]
2) Calculate slope of value above and […]

Turning to `CCCC[C@@H](NC(=O)[C@@H]1CCCCN1C(=O)CNC(=O)[C@H](CCCCN)NC(=O)[C@H](Cc1c[nH]cn1)NC(=O)[C@@H](C)NC(=O)[C@H](CC(C)C)NC(=O)[C@H](CCCNC(=N)N)NC(=O)[C@@H]1CCCN1C(=O)[C@H](CCCNC(=N)N)NC(=O)[C@@H]1CCC(=O)N1)C(=O)N[C@H](C)C(=O)N[C@H](Cc1ccccc1)C(=O)O` [Example 1, pE-R-P-R-L-a-H-K-G-Pip-nle-a-f-OH], the EC50 on hAPJ was found to be 2.3 nM. This compound also yielded a half-life in series [1] above 16.7 h.
For `CCCC[C@@H](NC(=O)[C@@H]1CCCN1C(=O)CNC(=O)[C@H](CCCCN)NC(=O)[C@@H](Cc1ccccc1)NC(=O)[C@H](CO)NC(=O)[C@H](CC(C)C)NC(=O)[C@H](CCCNC(=N)N)NC(=O)[C@@H]1CCCN1C(=O)[C@H](CCCNC(=N)N)NC(=O)[C@@H]1CCC(=O)N1)C(=O)N[C@H](C)C(=O)N[C@H](Cc1ccccc1)C(=O)O` [Example 55, pE-R-P-R-L-S-f-K-G-P-nle-a-f-OH] ([pGlu]RPRLS[dF]KGP[dNle][dA][dF]-OH), in that order: 72.8 nM and 1.68 h.
For `CCCC[C@@H](NC(=O)[C@@H]1CCCN1C(=O)CNC(=O)[C@H](CCCCN)NC(=O)[C@H](Cc1c[nH]cn1)NC(=O)[C@@H](CC(C)C)NC(=O)[C@H](CC(C)C)NC(=O)[C@H](CCCNC(=N)N)NC(=O)[C@@H]1CCCN1C(=O)[C@H](CCCNC(=N)N)NC(=O)[C@@H]1CCC(=O)N1)C(=O)N[C@H](C)C(=O)N[C@H](Cc1ccccc1)C(=O)O` [Example 10, pE-R-P-R-L-(D-Leu)-H-K-G-P-nle-a-f-OH] ([pGlu]RPRL[dL]HKGP[dNle][dA][dF]-OH), in that order: 155 nM and above 16.7 h.
In the same order, the values of `CCCC[C@@H](NC(=O)[C@@H]1CCCN1C(=O)CNC(=O)[C@H](CCCCN)NC(=O)[C@H](Cc1c[nH]cn1)NC(=O)[C@@H](CSC(C)(C)C)NC(=O)[C@H](CC(C)C)NC(=O)[C@H](CCCNC(=N)N)NC(=O)[C@@H]1CCCN1C(=O)[C@H](CCCNC(=N)N)NC(=O)[C@@H]1CCC(=O)N1)C(=O)N[C@H](C)C(=O)N[C@H](Cc1ccccc1)C(=O)O` [Example 7, pE-R-P-R-L-c(tBu)-H-K-G-P-nle-a-f-OH] ([pGlu]RPRL[dC](tBu)HKGP[dNle][dA][dF]-OH) are 693 nM and above 16.7 h.
In the case of `CCCC[C@@H](NC(=O)[C@@H]1CCCN1C(=O)CNC(=O)[C@H](CCCCN)NC(=O)[C@H](Cc1c[nH]cn1)NC(=O)[C@@H](C)NC(=O)[C@H](CC(C)C)NC(=O)[C@H](CCCNC(=N)N)NC(=O)[C@@H]1CCCN1C(=O)[C@H](CCCNC(=N)N)NC(=O)[C@@H]1CCC(=O)N1)C(=O)N[C@H](C)C(=O)NCCc1ccccc1` [Example 36, pE-R-P-R-L-a-H-K-G-P-nle-a-NH(Phenethyl)], the EC50 on hAPJ turned out to be 16.2 nM. Also, the half-life in series [1] came to 2.02 h.
In the case of `CCCC[C@@H](NC(=O)[C@@H]1CCCN1C(=O)CNC(=O)[C@H](CCCCN)NC(=O)[C@H](Cc1c[nH]cn1)NC(=O)[C@H](NC(=O)[C@H](CC(C)C)NC(=O)[C@H](CCCNC(=N)N)NC(=O)[C@@H]1CCCN1C(=O)[C@H](CCCNC(=N)N)NC(=O)[C@@H]1CCC(=O)N1)C(C)C)C(=O)N[C@H](C)C(=O)N[C@H](Cc1ccccc1)C(=O)O` [Example 61, pE-R-P-R-L-v-H-K-G-P-nle-a-f-OH] ([pGlu]RPRL[dV]HKGP[dNle][dA][dF]-OH), the EC50 at hAPJ was determined as 7.9 nM. In series [1], this compound displayed a half-life above 16.7 h.
Take `CCCC[C@@H](NC(=O)[C@@H]1CCCN1C(=O)CNC(=O)[C@H](CCCCN)NC(=O)[C@H](Cc1c[nH]cn1)NC(=O)[C@@H](C)NC(=O)[C@H](CC(C)C)NC(=O)[C@H](CCCNC(=N)N)NC(=O)[C@@H]1CCCN1C(=O)[C@H](CCCNC(=N)N)NC(=O)[C@@H]1CCC(=O)N1)C(=O)N[C@H](C)C(=O)N[C@H](CC(=O)O)C(=O)O` [Example 22, pE-R-P-R-L-a-H-K-G-P-nle-a-d-OH] ([pGlu]RPRL[dA]HKGP[dNle][dA][dD]-OH): the EC50 on hAPJ was determined as 86.8 nM. The compound further displayed a half-life in series [1] above 16.7 h.
